Converted amounts (≈) assume the structure as drawn. Read-outs that look alike come from different tables or passages of the source.
Legend:
Assay type in all cases: cell-based
[1] = test system: Candida albicans ATCC 62376; test: In vitro antifungal MIC, Candida albicans ATCC 62376
Experimental: (§1) The in vitro antifungal activity of the compounds of the present invention against a variety of fungiwas determined as follow: Test medium was prepared by dissolving first 5 g of dextrose and then 6.7 g of Bacto Yeast Nitrogen Base® (commercially available from Difco Laboratories) in 100 mL of distilled water. The solution was filter-sterilized and diluted 1:10 with 0.01M pH 8.0 phosphate buffer solution, and the final pH of the medium adjusted to about pH 7.0 when necessary with either 0.1N hydrochloric acid solution of 0.1N sodium hydroxide solution. […] These concentrated stock solutions were diluted to a concentration of 200 μg/mL (twice the highest concentration desired for testing) with the test medium. Amphotericin B, similarly prepared, was used as a reference antifungal agent.
(§2) The test organisms were then inoculated into test tubes containing approximately 3 to 10 mL of test medium and the test tubes incubated overnight at 37° C. A sample of each overnight culture was placed in a test tube and diluted using the test medium until a reading of 95% transmittance was obtained in a conventional UV/visible spectrophotometer set to 560 nm. The adjusted cultures were then diluted 1:50 with test medium. These diluted cultures served as the inocula for the assays which follow and were used within 15 minutes of preparation.
(§3) Next, 2-fold serial dilutions of each test compound in test medium were prepared in a 96-well microtiter plate using calibrated microdiluters attached to an automatic (hand-held) diluter (available from Dynatech Laboratories).
(§4) Using sterile calibrated droppers or a multi-point dispenser, the diluted inoculum suspension was added to each of the wells in the plate. When inoculation was complete, the microtiter tray was covered with a plastic plate sealer to minimize evaporation. After the plate had been sealed, a hole was made above each well with a sterile 26-gauge syringe needle in order to allow gas exchange. If plate sealers were not available, the microtiter trays were stacked in groups of five or less with an empty tray on top. The microtiter trays were then incubated in a humidified chamber at 35°-37° C. for 48 hours or until growth was visible in the growth control wells.
(§5) The minimum inhibitory concentration (MIC) was defined as the lowest concentration of test compound yielding no growth, a slight haze or sparsely isolated colonies on the inoculum spot as compared to the growth control containing no test compound.

[2] = test system: Torulopsis glabrata ATCC 15545; test: In vitro antifungal MIC, Torulopsis glabrata ATCC 15545
Experimental: as §1, §2, §3, §4, §5

[3] = test system: Candida tropicalis NRRL-Y-112; test: In vitro antifungal MIC, Candida tropicalis NRRL-Y-112
Experimental: as §1, §2, §3, §4, §5

[4] = test system: Candida albicans ATCC 38247; test: In vitro antifungal MIC, Candida albicans ATCC 38247
Experimental: as §1, §2, §3, §4, §5

Candida albicans CCH 442 = test: In vitro antifungal MIC, Candida albicans CCH 442
Experimental: as §1, §2, §3, §4, §5

[5] = test system: Candida albicans ATCC 10231; test: In vitro antifungal MIC, Candida albicans ATCC 10231
Experimental: as §1, §2, §3, §4, §5

[6] = test system: Aspergillus niger ATCC 16404; test: In vitro antifungal MIC, Aspergillus niger ATCC 16404
Experimental: as §1, §2, §3, §4, §5

Candida albicans 579A = test: In vitro antifungal MIC, Candida albicans 579A
Experimental: as §1, §2, §3, §4, §5

Candida kefyr ATCC 28838 = test: In vitro antifungal MIC, Candida kefyr ATCC 28838
Experimental: as §1, §2, §3, §4, §5

[7] = test system: Cryptococcus albidus ATCC 34140; test: In vitro antifungal MIC, Cryptococcus albidus ATCC 34140
Experimental: as §1, §2, §3, §4, §5

[8] = ATCC62376, Candida albicans ATCC 62376, 35°-37° C., 48 hours, read-out: MIC
[9] = Nakaseomyces glabratus, ATCC15545, Torulopsis glabrata ATCC 15545, 35°-37° C., 48 hours, read-out: MIC
[10] = NRRLY112, Candida tropicalis NRRL-Y-112, 35°-37° C., 48 hours, read-out: MIC
[11] = ATCC38247, Candida albicans ATCC 38247, 35°-37° C., 48 hours, read-out: MIC
[12] = CCH442, Candida albicans CCH 442, 35°-37° C., 48 hours, read-out: MIC
[13] = ATCC10231, Candida albicans ATCC 10231, 35°-37° C., 48 hours, read-out: MIC
[14] = ATCC16404, Aspergillus niger ATCC 16404, 35°-37° C., 48 hours, read-out: MIC
[15] = Candida albicans 579A, 35°-37° C., 48 hours, read-out: MIC
[16] = Kluyveromyces marxianus, ATCC28838, Candida kefyr ATCC 28838, 35°-37° C., 48 hours, read-out: MIC
[17] = Naganishia albida, ATCC34140, Cryptococcus albidus ATCC 34140, 35°-37° C., 48 hours, read-out: MIC

Row | SMILES | MIC [1, 8] [µg/mL] | MIC [2, 9] [µg/mL] | MIC [3, 10] [µg/mL] | MIC [4, 11] [µg/mL] | MIC (Candida albicans CCH 442; [12]) [µg/mL] | MIC [5, 13] [µg/mL] | MIC [6, 14] [µg/mL] | MIC (Candida albicans 579A; [15]) [µg/mL] | MIC (Candida kefyr ATCC 28838; [16]) [µg/mL] | MIC [7, 17] [µg/mL] | further results
1 | CC[Si](CC)(CC)OCCN1Sc2ccccc2[S+]1[O-] (stereo not shown) [Example 20, 2-(2-(triethylsilyloxy)ethyl)-1,3,2-benzodithiazole-1-oxide] | – | – | – | – | – | – | – | – | – | – | MIC ([1]; Candida albicans, ATCC62376, 48 h): 25 µg/mL (≈ 75.9 µM); MIC ([2]; Nakaseomyces glabratus, ATCC15545, 48 h): 25 µg/mL (≈ 75.9 µM); MIC ([3]; Candida tropicalis, NRRLY112, 48 h): 25 µg/mL (≈ 75.9 µM); MIC ([4]; Candida albicans, ATCC38247, 48 h): 3.12 µg/mL (≈ 9.47 µM); MIC (Candida albicans CCH 442; Candida albicans, CCH442, 48 h): 50 µg/mL (≈ 152 µM); MIC ([5]; Candida albicans, ATCC10231, 48 h): 25 µg/mL (≈ 75.9 µM); MIC ([6]; Aspergillus niger, ATCC16404, 48 h): 12.5 µg/mL (≈ 37.9 µM); MIC (Candida albicans 579A; Candida albicans, 579A, 48 h): 25 µg/mL (≈ 75.9 µM); MIC (Candida kefyr ATCC 28838; Kluyveromyces marxianus, ATCC28838, 48 h): 1.56 µg/mL (≈ 4.73 µM); MIC ([7]; Naganishia albida, ATCC34140, 48 h): 12.5 µg/mL (≈ 37.9 µM)
2 | CCOC(=O)CN1Sc2ccccc2[S+]1[O-] (stereo not shown) [Example 21, ethyl 2-(1,3,2-benzodithiazole-2-yl-1-oxide)-acetate] | – | – | – | – | – | – | – | – | – | – | MIC ([1]; Candida albicans ATCC 62376, 35°-37° C., 48 hours): 6.25 µg/mL (≈ 24.3 µM); MIC ([2]; Torulopsis glabrata ATCC 15545, 35°-37° C., 48 hours): 3.12 µg/mL (≈ 12.1 µM); MIC ([3]; Candida tropicalis NRRL-Y-112, 35°-37° C., 48 hours): 6.25 µg/mL (≈ 24.3 µM); MIC ([4]; Candida albicans ATCC 38247, 35°-37° C., 48 hours): 6.25 µg/mL (≈ 24.3 µM); MIC (Candida albicans CCH 442; Candida albicans CCH 442, 35°-37° C., 48 hours): 6.25 µg/mL (≈ 24.3 µM); MIC ([5]; Candida albicans ATCC 10231, 35°-37° C., 48 hours): 6.25 µg/mL (≈ 24.3 µM); MIC ([6]; Aspergillus niger ATCC 16404, 35°-37° C., 48 hours): 1.56 µg/mL (≈ 6.06 µM); MIC (Candida albicans 579A; Candida albicans 579A, 35°-37° C., 48 hours): 6.25 µg/mL (≈ 24.3 µM); MIC (Candida kefyr ATCC 28838; Candida kefyr ATCC 28838, 35°-37° C., 48 hours): 0.78 µg/mL (≈ 3.03 µM); MIC ([7]; Cryptococcus albidus ATCC 34140, 35°-37° C., 48 hours): 12.5 µg/mL (≈ 48.6 µM)
3 | O=C(O)COCCN1Sc2ccccc2[S+]1[O-] (stereo not shown) [Example 22, 2-(2-(1,3,2-benzodithiazole-2-yl-1-oxide)ethyloxy) acetic acid] | 100 (≈ 366 µM) | 100 (≈ 366 µM) | 100 (≈ 366 µM) | 50 (≈ 183 µM) | 100 (≈ 366 µM) | 100 (≈ 366 µM) | 25 (≈ 91.5 µM) | 100 (≈ 366 µM) | 3.12 (≈ 11.4 µM) | 100 (≈ 366 µM) | –
4 | CN(C)CCCN1Sc2ccccc2[S+]1[O-] (stereo not shown) [Example 23, 2-(3-(N,N-dimethylamino)-n-propyl)-1,3,2-benzodithiazole-1-oxide] | 50 (≈ 195 µM) | 50 (≈ 195 µM) | 50 (≈ 195 µM) | 12.5 (≈ 48.8 µM) | 50 (≈ 195 µM) | 50 (≈ 195 µM) | 12.5 (≈ 48.8 µM) | 50 (≈ 195 µM) | 3.12 (≈ 12.2 µM) | 12.5 (≈ 48.8 µM) | –
5 | [O-][S+]1c2ccccc2SN1CCN1CCCCC1 (stereo not shown) [Example 24, 2-(2-(1-piperidinyl)ethyl)-1,3,2-benzodithiazole-1-oxide] | 25 (≈ 88.5 µM) | 12.5 (≈ 44.3 µM) | 25 (≈ 88.5 µM) | 12.5 (≈ 44.3 µM) | 25 (≈ 88.5 µM) | 25 (≈ 88.5 µM) | 3.12 (≈ 11 µM) | 25 (≈ 88.5 µM) | 0.78 (≈ 2.76 µM) | 12.5 (≈ 44.3 µM) | –
6 | CCOC(CCCN1Sc2ccccc2[S+]1[O-])OCC (stereo not shown) [Example 25, 2-(4,4-diethoxybutyl)-1,3,2-benzodithiazole-1-oxide] | 6.25 (≈ 19.8 µM) | 6.25 (≈ 19.8 µM) | 12.5 (≈ 39.6 µM) | 1.56 (≈ 4.95 µM) | 1.56 (≈ 4.95 µM) | 6.25 (≈ 19.8 µM) | 3.12 (≈ 9.89 µM) | 3.12 (≈ 9.89 µM) | 3.12 (≈ 9.89 µM) | 12.5 (≈ 39.6 µM) | –
7 | COC(=O)CCCCCCCN1Sc2ccccc2[S+]1[O-] (stereo not shown) [Example 26] | 1.56 (≈ 4.76 µM) | 3.12 (≈ 9.53 µM) | 3.12 (≈ 9.53 µM) | 12.5 (≈ 38.2 µM) | 3.12 (≈ 9.53 µM) | 1.56 (≈ 4.76 µM) | 0.78 (≈ 2.38 µM) | 3.12 (≈ 9.53 µM) | 0.78 (≈ 2.38 µM) | 6.25 (≈ 19.1 µM) | –
8 | [O-][S+]1c2ccccc2SN1C1CC1 (stereo not shown) [Example 27, 2-cyclopropyl-1,3,2-benzodithiazole-1-oxide] | 0.78 (≈ 3.69 µM) | 0.78 (≈ 3.69 µM) | 1.56 (≈ 7.38 µM) | 3.12 (≈ 14.8 µM) | 1.56 (≈ 7.38 µM) | 1.56 (≈ 7.38 µM) | 0.39 (≈ 1.85 µM) | 0.78 (≈ 3.69 µM) | 0.39 (≈ 1.85 µM) | 3.12 (≈ 14.8 µM) | –
9 | [O-][S+]1c2ccccc2SN1C1CCCCCCC1 (stereo not shown) [Example 28, 2-cyclooctyl-1,3,2-benzodithiazole-1-oxide] | 3.12 (≈ 11.1 µM) | 3.12 (≈ 11.1 µM) | 3.12 (≈ 11.1 µM) | 6.25 (≈ 22.2 µM) | 3.12 (≈ 11.1 µM) | 3.12 (≈ 11.1 µM) | 0.78 (≈ 2.77 µM) | 3.12 (≈ 11.1 µM) | 0.39 (≈ 1.39 µM) | 12.5 (≈ 44.4 µM) | –
10 | [O-][S+]1c2ccccc2SN1C1C2CC3CC(C2)CC1C3 (stereo not shown) [Example 29, 2-(2-adamantyl)-1,3,2-benzodithiazole-1-oxide] | 6.25 (≈ 20.5 µM) | 12.5 (≈ 40.9 µM) | 12.5 (≈ 40.9 µM) | 50 (≈ 164 µM) | 25 (≈ 81.8 µM) | 6.25 (≈ 20.5 µM) | 3.12 (≈ 10.2 µM) | 12.5 (≈ 40.9 µM) | 3.12 (≈ 10.2 µM) | 25 (≈ 81.8 µM) | –

— patent US5140018A, “1,3,2-benzodithiazole-1-oxide compounds” (Abbott Laboratories, priority 1991, dated 1992)
